Laboratory results taken from ChEMBL document CHEMBL4265921, “Novel bisphosphonates with antiresorptive effect in bone mineralization and osteoclastogenesis” (Eur J Med Chem, 2018).
The source made the active and inactive calls. The rule behind the calls is not given here.

Experiments:
Bone marrow cell [1] = assay: Induction of mineralization in C57BL mouse bone marrow cells co-cultured with human PC3 cells at >100 nM supplemented with fresh medium containing compound every 3 days for 10 to 15 days by alizarin red dye based assay; type: functional
Bone marrow cell [2] = assay: Induction of mineralization in C57BL mouse bone marrow cells at >50 nM supplemented with fresh medium containing compound every 3 days for 10 to 15 days by alizarin red dye based assay; type: functional
Bone marrow cell [3] = assay: Induction of mineralization in C57BL mouse bone marrow cells co-cultured with human PC3 cells at 50 to 100 nM supplemented with fresh medium containing compound every 3 days for 10 to 15 days by alizarin red dye based assay; type: functional
MG-63 [4] = assay: Antiproliferative activity against human MG63 cells assessed as change in cell proliferation at 100 uM after 72 hrs by crystal violet staining based assay relative to control; type: functional
RAW264.7 [5] = assay: Inhibition of RANKL-induced osteoclastogenesis in mouse RAW264.7 cells after 72 hrs by TRAP staining based microscopic analysis; type: functional, cell-based
PC-3 [6] = assay: Antiproliferative activity against human PC3 cells assessed as change in cell proliferation at 100 uM after 72 hrs by crystal violet staining based assay relative to control; type: functional
MC3T3-E1 [7] = assay: Induction of mineralization in mouse MC3T3-E1 cells at >500 nM after 10 to 15 days by alizarin red dye based assay; type: functional, cell-based
RAW264.7 [8] = assay: Antiproliferative activity against RANKL-differentiated mouse RAW264.7 cells assessed as reduction in cell viability at 100 uM after 72 hrs by CCK8 assay; type: functional, cell-based
RAW264.7 [9] = assay: Antiproliferative activity against mouse RAW264.7 cells assessed as reduction in cell viability at 100 uM after 72 hrs by WST8 assay; type: functional, cell-based
MC3T3-E1 [10] = assay: Induction of mineralization in mouse MC3T3-E1 cells at 30 to 50 nM after 10 to 15 days by alizarin red dye based assay; type: functional, cell-based
Hydroxyapatite = assay: Binding affinity to hydroxyapatite at 100 uM using sodium salt form of compound after 5 mins by ESI/MS analysis
Bone marrow cell [11] = assay: Induction of mineralization in C57BL mouse bone marrow cells at 50 nM supplemented with fresh medium containing compound every 3 days for 10 to 15 days by alizarin red dye based assay; type: functional
Bone marrow cell [12] = assay: Induction of cell proliferation in C57BL mouse bone marrow cells at 100 nM after 72 hrs by crystal violet staining based assay; settings: 0.1 µM
MG-63 [13] = assay: Antiproliferative activity against human MG63 cells assessed as reduction in cell viability at 100 uM after 72 hrs by WST8 assay; type: functional, cell-based
J774.A1 [14] = assay: Antiproliferative activity against mouse J774A.1 cells assessed as reduction in cell viability at 100 uM after 72 hrs by WST8 assay; type: functional, cell-based
RAW264.7 [15] = assay: Antiproliferative activity against mouse RAW264.7 cells assessed as change in cell proliferation at 100 uM after 72 hrs by crystal violet staining based assay relative to control; type: functional
J774.A1 [16] = assay: Antiproliferative activity against mouse J774A.1 cells assessed as change in cell proliferation at 100 uM after 72 hrs by crystal violet staining based assay relative to control; type: functional
PC-3 [17] = assay: Antiproliferative activity against human PC3 cells assessed as reduction in cell viability at 100 uM after 72 hrs by WST8 assay; type: functional, cell-based
Bone marrow cell [18] = assay: Cytotoxicity against C57BL mouse bone marrow cells assessed as decrease in cell proliferation at 100 to 500 uM after 72 hrs by crystal violet staining based assay; design: scale not given: the % may be the effect or the level left
Bone marrow cell [19] = assay: Induction of cell proliferation in C57BL mouse bone marrow cells at 30 nM after 72 hrs by crystal violet staining based assay; settings: 0.03 µM
[20] = biological target: T1, Geranylgeranyl pyrophosphate synthase (Homo sapiens) (UniProt O95749); assay: Inhibition of recombinant human C-terminal His6-tagged GGPPS expressed in Escherichia coli BL21 at 1 to 10 uM using IPP and FPP as substrates pretreated for 15 mins followed by substrates addition and measured after 1 hr by colorimetric method relative to control
T1 sequence (whole entry): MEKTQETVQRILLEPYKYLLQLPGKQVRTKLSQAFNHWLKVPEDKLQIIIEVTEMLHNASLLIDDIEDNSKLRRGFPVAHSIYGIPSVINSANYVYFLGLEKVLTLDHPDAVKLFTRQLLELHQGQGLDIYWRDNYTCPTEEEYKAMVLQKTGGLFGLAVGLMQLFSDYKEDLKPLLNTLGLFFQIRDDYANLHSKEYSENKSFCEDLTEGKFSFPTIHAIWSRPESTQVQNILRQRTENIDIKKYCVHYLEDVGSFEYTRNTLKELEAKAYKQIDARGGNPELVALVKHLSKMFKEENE

RAW264.7 [21] = assay: Antiproliferative activity against mouse RAW264.7 cells assessed as reduction in cell proliferation at 500 uM after 72 hrs by crystal violet staining based assay; type: functional
[22] = biological target: T2, Farnesyl pyrophosphate synthase (Homo sapiens) (UniProt P14324); assay: Inhibition of recombinant human C-terminal His6-tagged FPPS expressed in Escherichia coli BL21 at 100 uM using DMAPP and IPP as substrates pretreated for 15 mins followed by substrates addition and measured after 1 hr by colorimetric method relative to control
T2 sequence (whole entry): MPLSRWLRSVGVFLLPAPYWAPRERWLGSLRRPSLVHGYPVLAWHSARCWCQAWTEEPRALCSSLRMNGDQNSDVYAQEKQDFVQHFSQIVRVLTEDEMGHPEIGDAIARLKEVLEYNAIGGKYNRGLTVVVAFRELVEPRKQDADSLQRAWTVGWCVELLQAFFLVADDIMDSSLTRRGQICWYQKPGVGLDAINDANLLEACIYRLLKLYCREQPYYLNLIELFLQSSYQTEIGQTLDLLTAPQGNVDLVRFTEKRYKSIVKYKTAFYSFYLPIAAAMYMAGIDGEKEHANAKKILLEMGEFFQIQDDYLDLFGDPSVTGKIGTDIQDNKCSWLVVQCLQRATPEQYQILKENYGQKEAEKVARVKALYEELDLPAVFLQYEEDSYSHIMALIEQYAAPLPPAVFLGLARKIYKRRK

MG-63 [23] = assay: Antiproliferative activity against human MG63 cells assessed as reduction in cell proliferation at 500 uM after 72 hrs by crystal violet staining based assay; type: functional
[24] = biological target: T2, Farnesyl pyrophosphate synthase (Homo sapiens); assay: Inhibition of recombinant human C-terminal His6-tagged FPPS expressed in Escherichia coli BL21 at 1 to 10 uM using DMAPP and IPP as substrates pretreated for 15 mins followed by substrates addition and measured after 1 hr by colorimetric method relative to control
[25] = biological target: T3, Farnesyl pyrophosphate synthase (Homo sapiens, UniProt P14324); assay: Inhibition of recombinant human C-terminal His6-tagged FPPS expressed in Escherichia coli BL21 using DMAPP and IPP as substrates pretreated for 15 mins followed by substrates addition and measured after 1 hr by colorimetric method
T3 sequence (P14324 whole entry): T2 sequence (whole entry)

PC-3 [26] = assay: Antiproliferative activity against human PC3 cells assessed as reduction in cell proliferation at 500 uM after 72 hrs by crystal violet staining based assay; type: functional
J774.A1 [27] = assay: Antiproliferative activity against mouse J774A.1 cells assessed as reduction in cell proliferation at 500 uM after 72 hrs by crystal violet staining based assay; type: functional

| Compound | Activity (Bone marrow cell [1]) | Activity (Bone marrow cell [2]) | Activity (Bone marrow cell [3]) | Activity (MG-63 [4]) | inhibition (RAW264.7 [5]) | Activity (PC-3 [6]) | Activity (MC3T3-E1 [7]) | Activity (RAW264.7 [8]) | Activity (RAW264.7 [9]) | Activity (MC3T3-E1 [10]) | Activity (Hydroxyapatite) | Activity (Bone marrow cell [11]) | Activity (MG-63 [13]) | Activity (J774.A1 [14]) | Activity (RAW264.7 [15]) | Activity (J774.A1 [16]) | Activity (PC-3 [17]) | also measured |
| --- | --- | --- | --- | --- | --- | --- | --- | --- | --- | --- | --- | --- | --- | --- | --- | --- | --- | --- |
| O.O=P(O)(O)C(O)(Cn1ccnc1)P(=O)(O)O [ZOLEDRONIC ACID] | inactive | inactive | Active | -27.901% | Active | -28.408% | inactive | Active | Active | Active | > 95% | Active | Active | Active | -54.523% | -60.657% | Active | Activity (Bone marrow cell [12]): Toxic; Activity (Bone marrow cell [18]): 20% |
| O=P(O)(O)C(O)(CNc1ncccn1)P(=O)(O)O | inactive | inactive | Active | -16.295% | Active | -29.682% | inactive | Active | Active | Active | 90% | Active | Active | Active | -47.365% | -31.512% | Active | Activity (Bone marrow cell [19]): Toxic; inhibition [20]: 68 to 79%; Activity (RAW264.7 [21]): inactive; inhibition [22]: 96%; Activity (MG-63 [23]): inactive; inhibition [24]: 68 to 79%; IC50 [25]: 0.31 µM; Activity (PC-3 [26]): inactive; Activity (J774.A1 [27]): inactive |
